Entries after “also recorded” stand apart in the source; their conditions may differ. Where two headings read alike, the source gives them in different places.
Legend:
[1] = system: RM1-BoMe3 cells on femur pieces; experiment: Bone-in-culture array (BICA) with RM1-BoMe3 cells; type: cell-based, mouse; conditions: bone pre-treated with Olaparib 20 μM 48 h, ADT conditions
Procedure: 8-week-old C57B16 male mice were euthanized, and lower limb bone were collected. Femur epiphyses were dissected and fragmented in 4 pieces by sterilized micro dissecting scissors. Bone pieces were aligned into low-attachment 96-well plates pre-loaded with 200 μL DMEM/F12 supplemented with 5% charcoal striped FBS for ADT conditions. Bone pieces were treated with DMSO or Olaparib 20 μM for 48 h and then 5000 RM1-BoMe3-RFP-Luc cells were seed on top of the bone pieces. After 48 hours, pictures were taken using EVOS M5000 Imaging System and RFP^+ positive areas were measured using Fiji.

WPMY-1 cells = experiment: Autophagy activation by LC3 lipidation in WPMY-1 cells; type: cell-based, human; conditions: with lysosomal inhibitors
Excerpt: To knock out PARP-1 in WPMY-1 cells, single-guide RNA sequences targeting PARP-1 exon2 were purchased from Synthego and transduced into WPMY-1 cells with recombinant Streptococcus pyogenes Cas9 protein (Truecut Cas9 Protein v2, Thermo), using the Neon Transfection System 1 (Invitrogen) following the manufacturer's protocol and single clones were expanded and screened by protein immunoblotting. To perform AP1-A binding site editing in the SQSTM promoter in WPMY-1 cells, single-guide RNA sequences targeting the human AP1-A binding site (Synthego) was transduced into cells with a Cas9 protein and a single-stranded donor oligonucleotide (ssODN, IDT) using Neon Electroporation System. Single clones were expanded and screened for AP1-A editing by Sanger sequencing. A point mutation to disrupt the API enhancer element in the p62 promoter was introduced by Site Directed Mutagenesis (Stratagene). Knockdown of MCT1, MCT4, FOS, PARP1, PARP2, CD38, ATG5, and SIRT1-7 genes in WPMY-1 cells were achieved by siRNA transfection using Lipofectamine RNAiMAX Transfection Reagent (Invitrogen). […]
Cells for protein analysis were lysed in RIPA buffer (20 mM Tris-HCl, […], 2 mM EDTA, 1% Triton-X, 10% glycerol, 0.1% SDS, and 0.5% sodium deoxycholate) with phosphatase and protease inhibitors. […] Protein concentration in lysates was determined by using Protein Assay Kit (Bio-Rad). […]

WPMY-1 fibroblasts = experiment: GSEA of RNAseq data from WPMY-1 fibroblasts; type: cell-based, human; conditions: for GSEA inflammatory signaling pathways (TNFα, IL-6, JAK-STAT): Olaparib 20 μM vs DMSO
Procedure: Total RNA was extracted using Quick-RNA MiniPrep kit (Zymo Research). Libraries were prepared from 200 ng of total RNA using the QuantSeq 3′ mRNA-Seq Library Prep Kit FWD for Illumina from Lexogen, and optional UMIs (Vienna, Austria). Barcoded libraries were pooled, and single end sequenced (1×75) on the Illumina NextSeq 500 using the High output V2.5 kit (Illumina Inc., San Diego CA).
Peaks were annotated with ChipSeeker R package. […].

[2] = system: prostate cancer bone metastasis; experiment: Paired biopsies of bone metastasis from a mCRPC patient, IHC for HA; type: in vivo, human
PC3 cells = experiment: Trans-well migration and invasion of PC3 cells co-cultured with pre-treated WPMY-1 cells; type: cell-based, human; conditions: co-culture with Olaparib-pretreated WPMY-1, 20 h, basal and ADT
Procedure: For co-culture migration and invasion assays, 8×10^4 WPMY-1 cells were plated onto the lower chamber of a 24 well plate in DMEN containing 10% FBS (basal conditions) or 10% charcoal stripped FBS (ADT conditions) and vehicle (DMSO) or Olaparib 10 μM or Olaparib 10 μM+PEGPH20 2.5 μg/ml for 48 hours. 5×10^4 PC3 were seeded in a transwell chamber (Corning Biocoat control inserts) or in a transwell invasion chamber (Corning BioCoat Matrigel Invasion Chambers), both with 8 μm membrane. PC3 were allowed to migrate or invade for 20 hours at 37° C., 5% CO2. Cells were fixed in cold methanol and stained with crystal violet.

In the case of `O=C(c1cc(Cc2n[nH]c(=O)c3ccccc23)ccc1F)N1CCN(C(=O)C2CC2)CC1` [Olaparib], the “seeding of cancer cells onto the bone (RFP+ area)” value [1] is reported as “increased tumor homing of RM1-BoMe3”, the “seeding of cancer cells onto the bone (RFP+ area)” value ([1]; listed as Ola) is reported as “significantly increased the seeding of cancer cells onto the bone” and the “autophagy activation (LC3 lipidation)” value (WPMY-1 cells) is reported as “induced autophagy activation; also recorded: induces autophagy”. For the same compound, the “GSEA inflammatory signaling pathways (TNFα, IL-6, JAK-STAT)” value (WPMY-1 fibroblasts) was “increased inflammatory related signatures”, the “GSEA inflammatory signaling pathways (TNFα, IL-6, JAK-STAT)” value (WPMY-1 fibroblasts; listed as Ola) was “significant enrichment was found in inflammatory signaling pathways” and the “GSEA signatures of extracellular matrix remodeling / CAF activation” value (WPMY-1 fibroblasts; basal or ADT conditions) was “enrichment of signatures corresponding to extracellular matrix remodeling”. For the same compound, the “HA deposition in bone metastasis, pre- vs post-treatment” value [2] was “increased HA deposition”, the “HA deposition in bone metastasis, pre- vs post-treatment” value ([2]; listed as Ola) was “robust increase in HA deposition” and the “migration and invasion of PC3 cells” value (PC3 cells) was “increased migration and invasion of PCa cells”.

Source: US20250073234A1, “COMBINATION THERAPIES INCLUDING PARP1 INHIBITORS” (Cornell University, priority 2022, published 2025)
